Results reported in patent US5219884A, “Immunosuppressant” (Taito Co., Ltd., priority 1990, dated 1993).
Read-outs that look alike come from different tables or passages of the source.

Tests used:
MOLT4 = assay: cytotoxicity to tumor cell line MOLT4; type: cell-based, human
Procedure: (§1) Cytotoxicity to human tumor cell lines was examined as follows:
(§2) Cells of human cell lines, K562, MOLT4, U937, HL60, KATOIII, KB, PC-6, PC-14 and CCRF-CEM were separately suspended to the concentration of 2×10^5 cells/ml in the RPMI1640 culture medium supplemented with 20% FCS. Fifty μl of this suspension was added to each well of 96-well microculture plates to which 50 μl of the test solution had been added. After culturing at 37° C. in an atmosphere of 5% carbon dioxide for 72 hours, the absorbancy at 550 nm was measured in the same way as the colorimetry using MTT in Experimental Example 1, and the percent suppression was calculated in the same manner as in Experimental Example 14, which was used as the index of cytotoxicity.

[1] = cytotoxicity to tumor cell line MOLT4; type: cell-based, human; conditions: human, molt4 cells, read-out: Suppression
Procedure: as §1, §2

PC-14 = assay: in vitro; type: cell-based, human
Procedure: as §1, §2

KB = assay: in vitro; type: cell-based, human
Procedure: as §1, §2

in vitro = type: cell-based, human; conditions: human, read-out: Suppression
Procedure: as §1, §2

U937 = assay: in vitro; type: cell-based, human
Procedure: as §1, §2

K562 = assay: in vitro; type: cell-based, human
Procedure: as §1, §2

HL60 = assay: in vitro; type: cell-based, human
Procedure: as §1, §2

CCRF-CEM = assay: in vitro; type: cell-based, human
Procedure: as §1, §2

[2] = tested on: IL2-dependent mouse cell line CTLL-2; assay: suppression of IL-2 induced 3H-thymidine incorporation of CTLL-2; type: cell-based; conditions: for inhibition at 0.01 µg/mL / inhibition at 0.1 µg/mL / inhibition at 1 µg/mL / inhibition at 10 µg/mL: Mus musculus; for inhibition at 0.01 µg/mL / inhibition at 0.1 µg/mL / inhibition at 10 µg/mL: read-out: Suppression
Procedure: IL2-dependent mouse cell line CTLL-2 cells were suspended in the RPMI1640 culture medium supplemented with 30% FCS to a concentration of 2×10^5 cells/ml. The suspension (50 μl) and 50 μl of concanavalin A-stimulated rat spleen cell culture supernatants containing IL2 were added to each well of 96-well microculture plates in which 100 μl of the test substance had been placed. After culturing at 37° C. in an atmosphere of 5% carbon dioxide for 20, 44, or 68 hours, 0.5 μCi/well of ^3 H-thymidine was added, and cultured for 4 hours under the same conditions. After termination of the culture, the cells were harvested by a cell harvester, and the radioactivity incorporated into the cells was measured by a liquid scintillation counter.

## CCCCCCC(=O)CCCCCC/C=C/CC1OC(=O)C(N)(CO)C1O (stereo not drawn) [Example 4]
MOLT4; 0.1 μg/ml
  Absorbancy: 0.351
MOLT4; 1.0 μg/ml
  Absorbancy: 0.350
MOLT4; 10.0 μg/ml
  Absorbancy: 0.315
MOLT4; 100.0 μg/ml
  Absorbancy: 0.012
[1]; 0.1 μg/ml
  cytotoxicity at 72 h: 14%
[1]; 1.0 μg/ml
  cytotoxicity at 72 h: 14.2%
[1]; 10.0 μg/ml
  cytotoxicity at 72 h: 22.8%
[1]; 100.0 μg/ml
  cytotoxicity at 72 h: 97.1%
PC-14; 0.1 μg/ml
  Absorbancy: 0.656
PC-14; 1.0 μg/ml
  Absorbancy: 0.679
PC-14; 10.0 μg/ml
  Absorbancy: 0.657
PC-14; 100.0 μg/ml
  Absorbancy: 0.030
KB; 0.1 μg/ml
  Absorbancy: 0.884
KB; 1.0 μg/ml
  Absorbancy: 1.065
KB; 10.0 μg/ml
  Absorbancy: 0.726
KB; 100.0 μg/ml
  Absorbancy: 0.012
In vitro; ccrf-cem cells, 0.1 μg/ml
  cytotoxicity at 72 h: 11.3%
In vitro; ccrf-cem cells, 1.0 μg/ml
  cytotoxicity at 72 h: 12.6%
In vitro; ccrf-cem cells, 10.0 μg/ml
  cytotoxicity at 72 h: 37.4%
In vitro; ccrf-cem cells, 100.0 μg/ml
  cytotoxicity at 72 h: 99.4%
In vitro; hl60 cells, 0.1 μg/ml
  cytotoxicity at 72 h: 23.4%
In vitro; hl60 cells, 1.0 μg/ml
  cytotoxicity at 72 h: 13.3%
In vitro; hl60 cells, 10.0 μg/ml
  cytotoxicity at 72 h: 21.1%
In vitro; hl60 cells, 100.0 μg/ml
  cytotoxicity at 72 h: 97.7%
In vitro; k562 cells, 0.1 μg/ml
  cytotoxicity at 72 h: 14.7%
In vitro; k562 cells, 1.0 μg/ml
  cytotoxicity at 72 h: 8.3%
In vitro; k562 cells, 10.0 μg/ml
  cytotoxicity at 72 h: 14.5%
In vitro; k562 cells, 100.0 μg/ml
  cytotoxicity at 72 h: 98.9%
In vitro; katoiii cells, 0.1 μg/ml
  cytotoxicity at 72 h: 5.3%
In vitro; katoiii cells, 1.0 μg/ml
  cytotoxicity at 72 h: 6.7%
In vitro; katoiii cells, 10.0 μg/ml
  cytotoxicity at 72 h: 25.8%
In vitro; katoiii cells, 100.0 μg/ml
  cytotoxicity at 72 h: 97.9%
In vitro; kb cells, 0.1 μg/ml
  cytotoxicity at 72 h: 19%
In vitro; kb cells, 1.0 μg/ml
  cytotoxicity at 72 h: 2.5%
In vitro; kb cells, 10.0 μg/ml
  cytotoxicity at 72 h: 33.5%
In vitro; kb cells, 100.0 μg/ml
  cytotoxicity at 72 h: 99%
In vitro; pc-14 cells, 0.1 μg/ml
  cytotoxicity at 72 h: 0%
In vitro; pc-14 cells, 1.0 μg/ml
  cytotoxicity at 72 h: 0%
In vitro; pc-14 cells, 10.0 μg/ml
  cytotoxicity at 72 h: 0%
In vitro; pc-14 cells, 100.0 μg/ml
  cytotoxicity at 72 h: 95.3%
In vitro; u937 cells, 0.1 μg/ml
  cytotoxicity at 72 h: 16.1%
In vitro; u937 cells, 1.0 μg/ml
  cytotoxicity at 72 h: 0%
In vitro; u937 cells, 10.0 μg/ml
  cytotoxicity at 72 h: 2.9%
In vitro; u937 cells, 100.0 μg/ml
  cytotoxicity at 72 h: 99%
U937; 0.1 μg/ml
  Absorbancy: 0.313
U937; 1.0 μg/ml
  Absorbancy: 0.384
U937; 10.0 μg/ml
  Absorbancy: 0.362
U937; 100.0 μg/ml
  Absorbancy: 0.004
K562; 0.1 μg/ml
  Absorbancy: 0.524
K562; 1.0 μg/ml
  Absorbancy: 0.563
K562; 10.0 μg/ml
  Absorbancy: 0.525
K562; 100.0 μg/ml
  Absorbancy: 0.007
HL60; 0.1 μg/ml
  Absorbancy: 0.265
HL60; 1.0 μg/ml
  Absorbancy: 0.300
HL60; 10.0 μg/ml
  Absorbancy: 0.273
HL60; 100.0 μg/ml
  Absorbancy: 0.008
CCRF-CEM; 0.1 μg/ml
  Absorbancy: 0.564
CCRF-CEM; 1.0 μg/ml
  Absorbancy: 0.556
CCRF-CEM; 10.0 μg/ml
  Absorbancy: 0.389
CCRF-CEM; 100.0 μg/ml
  Absorbancy: 0.004
[2]; 24 hrs, 0.01 μg/ml
  3H-thymidine uptake: 5907 cpm
[2]; 24 hrs, 0.1 μg/ml
  3H-thymidine uptake: 4240 cpm
[2]; 24 hrs, 1 μg/ml
  3H-thymidine uptake: 5400 cpm
[2]; 24 hrs, 10 μg/ml
  3H-thymidine uptake: 2602 cpm
[2]; 48 hrs, 0.01 μg/ml
  3H-thymidine uptake: 21930 cpm
[2]; 48 hrs, 0.1 μg/ml
  3H-thymidine uptake: 9202 cpm
[2]; 48 hrs, 1 μg/ml
  3H-thymidine uptake: 7202 cpm
[2]; 48 hrs, 10 μg/ml
  3H-thymidine uptake: 7465 cpm
[2]; 72 hrs, 0.01 μg/ml, control 78515 cpm
  3H-thymidine uptake: 69355 cpm
[2]; 72 hrs, 0.1 μg/ml, control 78515 cpm
  3H-thymidine uptake: 16705 cpm
[2]; 72 hrs, 1 μg/ml, control 78515 cpm
  3H-thymidine uptake: 4088 cpm
[2]; 72 hrs, 10 μg/ml, control 78515 cpm
  3H-thymidine uptake: 11806 cpm
[2]; CTLL-2, 48 h
  inhibition at 0.01 µg/mL: 13.3%
[2]; CTLL-2, 24 hrs, 0.01 μg/ml
  inhibition at 0.01 µg/mL: 11.8%
[2]; CTLL-2, 24 hrs, 0.1 μg/ml
  inhibition at 0.1 µg/mL: 37.5%
[2]; CTLL-2, 24 hrs, 1 μg/ml
  inhibition at 1 µg/mL: 19.6%
[2]; CTLL-2, 24 hrs, 10 μg/ml
  inhibition at 10 µg/mL: 62.7%
[2]; CTLL-2, 48 hrs, 0.1 μg/ml
  inhibition at 0.1 µg/mL: 64.6%
[2]; CTLL-2, 48 hrs, 1 μg/ml
  inhibition at 1 µg/mL: 72.7%
[2]; CTLL-2, 48 hrs, 10 μg/ml
  inhibition at 10 µg/mL: 71.6%
[2]; CTLL-2, 72 hrs, 0.01 μg/ml, control 78515 cpm
  inhibition at 0.01 µg/mL: 11.8%
[2]; CTLL-2, 72 hrs, 0.1 μg/ml, control 78515 cpm
  inhibition at 0.1 µg/mL: 79.4%
[2]; CTLL-2, 72 hrs, 1 μg/ml, control 78515 cpm
  inhibition at 1 µg/mL: 95.6%
[2]; CTLL-2, 72 hrs, 10 μg/ml, control 78515 cpm
  inhibition at 10 µg/mL: 85.7%
